Measurements taken from patent publication US20080109040A1, “METHOD OF TREATING ARRHYTHMIAS” (priority 2002, published 2008).

Experiments:
epicardial preparations = test: Action potential studies in isolated canine ventricular epicardial tissues; parameters: Amplitude / Overshoot: unit not given beside the values; conditions: for Amplitude / Overshoot / RMP: epicardial, BCL = 500 msec
Experimental: The composition of the Tyrode's solution was (in mM): […] Action potential recordings: Transmembrane potentials were recorded using standard glass microelectrodes filled with 2.7 M KCl (10 to 20 MΩ DC resistance) connected to a high input-impedance amplification system (World Precision Instruments, Sarasota, Fla., USA). […] Data recorded at BCLs of 500 and 2000 msec are presented.

[1] = biological target: T1, L-type calcium current (ICa) (Canis lupus familiaris, UniProt A0A8I3QY31); test: L-type calcium current voltage clamp in isolated canine left ventricular myocytes; assay type: cell-based; conditions: read-out: Concentration at which ranolazine blocks the calcium channel
T1 construct: Single myocytes were obtained by enzymatic dissociation from a wedge-shaped section of the ventricular free wall; endogenous in cells; host or cells: isolated canine left ventricular myocytes
T1 sequence (A0A8I3QY31 1-2188): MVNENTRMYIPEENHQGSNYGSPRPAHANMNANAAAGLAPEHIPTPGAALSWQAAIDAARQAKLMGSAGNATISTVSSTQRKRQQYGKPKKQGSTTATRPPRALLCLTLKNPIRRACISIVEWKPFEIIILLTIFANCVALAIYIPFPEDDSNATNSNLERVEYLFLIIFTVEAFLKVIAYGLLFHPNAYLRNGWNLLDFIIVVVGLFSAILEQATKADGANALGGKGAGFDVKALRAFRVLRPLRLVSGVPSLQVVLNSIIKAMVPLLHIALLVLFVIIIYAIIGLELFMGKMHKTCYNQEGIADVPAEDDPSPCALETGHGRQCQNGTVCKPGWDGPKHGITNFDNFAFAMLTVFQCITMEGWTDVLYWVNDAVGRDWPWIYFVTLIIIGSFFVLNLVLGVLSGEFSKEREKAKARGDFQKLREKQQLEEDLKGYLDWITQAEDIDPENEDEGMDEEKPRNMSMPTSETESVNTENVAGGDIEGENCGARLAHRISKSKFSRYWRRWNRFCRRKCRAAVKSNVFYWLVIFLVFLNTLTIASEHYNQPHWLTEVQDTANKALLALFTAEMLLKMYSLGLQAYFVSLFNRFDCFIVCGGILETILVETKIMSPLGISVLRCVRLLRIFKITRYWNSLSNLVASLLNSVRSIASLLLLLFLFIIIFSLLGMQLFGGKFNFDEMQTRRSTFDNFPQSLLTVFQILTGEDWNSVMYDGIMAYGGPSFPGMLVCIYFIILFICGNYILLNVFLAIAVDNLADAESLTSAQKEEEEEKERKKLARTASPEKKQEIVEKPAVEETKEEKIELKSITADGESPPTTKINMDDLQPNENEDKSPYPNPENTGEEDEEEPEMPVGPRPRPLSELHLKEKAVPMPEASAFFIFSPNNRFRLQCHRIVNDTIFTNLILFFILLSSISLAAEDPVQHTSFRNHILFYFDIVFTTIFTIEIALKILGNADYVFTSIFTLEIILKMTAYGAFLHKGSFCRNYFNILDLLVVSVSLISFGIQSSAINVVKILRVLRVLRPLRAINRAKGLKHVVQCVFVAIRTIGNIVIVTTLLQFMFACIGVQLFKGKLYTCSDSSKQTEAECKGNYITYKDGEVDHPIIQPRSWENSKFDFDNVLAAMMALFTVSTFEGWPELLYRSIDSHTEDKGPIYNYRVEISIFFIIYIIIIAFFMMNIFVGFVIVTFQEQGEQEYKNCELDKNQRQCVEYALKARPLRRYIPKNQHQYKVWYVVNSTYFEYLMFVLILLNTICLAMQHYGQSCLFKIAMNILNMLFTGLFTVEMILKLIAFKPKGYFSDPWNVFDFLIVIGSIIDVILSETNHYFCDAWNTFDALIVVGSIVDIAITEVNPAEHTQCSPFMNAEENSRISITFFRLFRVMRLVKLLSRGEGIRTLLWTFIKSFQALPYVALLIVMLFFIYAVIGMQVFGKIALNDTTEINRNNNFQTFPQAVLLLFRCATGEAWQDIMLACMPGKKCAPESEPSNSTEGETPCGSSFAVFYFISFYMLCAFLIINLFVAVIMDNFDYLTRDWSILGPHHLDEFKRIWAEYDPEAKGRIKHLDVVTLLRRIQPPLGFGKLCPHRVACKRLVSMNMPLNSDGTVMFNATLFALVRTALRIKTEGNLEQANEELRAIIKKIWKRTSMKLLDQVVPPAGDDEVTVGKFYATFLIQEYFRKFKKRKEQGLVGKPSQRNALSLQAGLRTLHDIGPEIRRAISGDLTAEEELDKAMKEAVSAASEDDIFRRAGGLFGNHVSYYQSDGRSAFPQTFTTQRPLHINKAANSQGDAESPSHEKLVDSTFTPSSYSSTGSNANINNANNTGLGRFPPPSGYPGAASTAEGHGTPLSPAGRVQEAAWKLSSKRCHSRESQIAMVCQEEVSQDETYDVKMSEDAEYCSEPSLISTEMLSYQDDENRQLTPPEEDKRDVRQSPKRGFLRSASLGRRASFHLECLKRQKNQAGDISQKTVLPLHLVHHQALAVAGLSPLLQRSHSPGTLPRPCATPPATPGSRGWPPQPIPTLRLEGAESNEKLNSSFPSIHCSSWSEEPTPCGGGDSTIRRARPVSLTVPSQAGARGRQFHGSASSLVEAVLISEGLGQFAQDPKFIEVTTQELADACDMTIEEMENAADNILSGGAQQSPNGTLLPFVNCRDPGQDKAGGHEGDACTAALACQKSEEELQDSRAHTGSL

[2] = tested on: arterially perfused canine left ventricular wedge preparation; test: Action potential and ECG studies in arterially-perfused canine left ventricular wedge preparations; parameters: APD90 ± SE, M region / TDR / APD50 ± SE, M region / QTend: unit not given beside the values; conditions: for APD50 ± SE, Epicardium / APD50 ± SE, M region / APD90 ± SE, Epicardium / APD90 ± SE, M region / QTend / TDR / Tpeak-Tend: BCL = 2000; for Ranolazine-induced Torsade de Pointes, Spontaneous / Ranolazine-induced Torsade de Pointes, Stimulation-induced: ranolazine 1-100 μM
Experimental: Transmural left ventricular wedges with dimensions of approximately 12 mm×35 mm×12 mm were dissected from the mid-to-basal anterior region of the left ventricular wall and a diagonal branch of the left anterior descending coronary artery was cannulated to deliver the perfusate (Tyrode's solution). The composition of the Tyrode's solution was (in mM): […] A separate set of experiments were performed using Tyrode's solution containing 2 mM KCl. Transmembrane action potentials were recorded from epicardial (EPI) and Subendocardial regions (M) using floating microelectrodes. A transmural pseudo-electrocardiogram (ECG) was recorded using two K-Agar electrodes (1.1 mm, i.d.) placed at approx. 1 cm. from the epicardial (+) and endocardial (−) surfaces of the preparation and along the same axis as the transmembrane recordings. […] A constant flow rate was set before ischemia to reach a perfusion pressure of 40-50 mmHg. The temperature was maintained at 37±0.5° C. by heating the perfusate and a contiguous water-chamber that surrounded the tissue-chamber with the same heater/circulating bath. The top-uncovered part of the tissue-chamber was covered in each experiment to 75% of its surface with plastic sheets to further prevent heat loss; the remainder 25% was kept uncovered to position and maneuver the ECG electrodes and the floating microelectrodes. The preparations were fully immersed in the extracellular solution throughout the course of the experiment. The QT interval was defined as the time interval between the initial deflection of the QRS complex and the point at which a tangent drawn to the steepest portion of the terminal part of the T wave crossed the isoelectric line. Experimental Series 1: […] [K^+]o=4 mM. a. Steady-state stimulation: […] b. Programmed electrical stimulation (PES): Premature stimulation was applied to the epicardial surface before and after each concentration of drug in an attempt to induce arrhythmias. Single pulses (S2) were delivered once after every fifth or tenth basic beat (S1) at cycle lengths of 2000 msec. […] Experimental Series 2: […] [K^+]o=2 mM.

[3] = epicardium, low [K+]o, BCL = 2000 msec

COc1ccccc1OCC(O)CN1CCN(CC(=O)Nc2c(C)cccc2C)CC1 (racemic) [ranolazine, N-(2,6-dimethylphenyl)-4-[2-hydroxy-3-(2-methoxyphenoxy)propyl]-1-piperazineacetamide]
Effect on APD (epicardial preparations; epicardial tissues, BCL 500 msec): concentration-dependent prolongation
Amplitude (epicardial preparations; ranolazine 1.0 μM): 93 ± 5
Overshoot (epicardial preparations; ranolazine 1.0 μM): 10 ± 4
RMP (epicardial preparations; ranolazine 1.0 μM): −84 ± 4
Amplitude (epicardial preparations; ranolazine 5.0 μM): 101 ± 2
Overshoot (epicardial preparations; ranolazine 5.0 μM): 12 ± 3
RMP (epicardial preparations; ranolazine 5.0 μM): −89 ± 1
Amplitude (epicardial preparations; ranolazine 10.0 μM): 94 ± 5
Overshoot (epicardial preparations; ranolazine 10.0 μM): 8 ± 4
RMP (epicardial preparations; ranolazine 10.0 μM): −88 ± 2
Amplitude (epicardial preparations; ranolazine 50.0 μM): 86 ± 12
Overshoot (epicardial preparations; ranolazine 50.0 μM): 0 ± 11
RMP (epicardial preparations; ranolazine 50.0 μM): −86 ± 1
Amplitude (epicardial preparations; ranolazine 100.0 μM (n=2)): 93 ± 3
Overshoot (epicardial preparations; ranolazine 100.0 μM (n=2)): 8 ± 4
RMP (epicardial preparations; ranolazine 100.0 μM (n=2)): −85 ± 3
Effect on APD90 (epicardial preparations; epicardium, low [K+]o, BCL 500 msec): prominent concentration-dependent prolongation
Effect on APD50 (epicardial preparations; [3]): little change
Effect on APD90 (epicardial preparations; [3]): concentration-dependent prolongation
Effect on APD in two of four epicardial preparations (epicardial preparations; ranolazine 100.00 μM, BCL 500 msec): excessive APD prolongation
IC50 [1]: 296 µM
APD50 ± SE, Epicardium ([2]; 1 μM, 2 mM [KCl]0): 173 ± 2
APD50 ± SE, M region ([2]; 1 μM, 2 mM [KCl]0): 210.7 ± 13.53
APD90 ± SE, Epicardium ([2]; 1 μM, 2 mM [KCl]0): 232 ± 5.508
APD90 ± SE, M region ([2]; 1 μM, 2 mM [KCl]0): 280.3 ± 12.72
QTend ([2]; 1 μM, 2 mM [KCl]0): 311 ± 9.5
TDR ([2]; 1 μM, 2 mM [KCl]0): 28.33 ± 11.46
Tpeak-Tend ([2]; 1 μM, 2 mM [KCl]0): 35 ± 4.70
APD50 ± SE, Epicardium ([2]; 1 μM, 4 mM [KCl]0): 176.3 ± 12.25
APD50 ± SE, M region ([2]; 1 μM, 4 mM [KCl]0): 203.3 ± 9.621
APD90 ± SE, Epicardium ([2]; 1 μM, 4 mM [KCl]0): 213.8 ± 13.28
APD90 ± SE, M region ([2]; 1 μM, 4 mM [KCl]0): 254.3 ± 9.15
QTend ([2]; 1 μM, 4 mM [KCl]0): 263.5 ± 10.56
TDR ([2]; 1 μM, 4 mM [KCl]0): 26.75 ± 8.045
Tpeak-Tend ([2]; 1 μM, 4 mM [KCl]0): 34.5 ± 3.202
APD50 ± SE, Epicardium ([2]; 5 μM, 2 mM [KCl]0): 183.5 ± 1.5
APD50 ± SE, M region ([2]; 5 μM, 2 mM [KCl]0): 205.7 ± 7.881
APD90 ± SE, Epicardium ([2]; 5 μM, 2 mM [KCl]0): 252.5 ± 10.5
APD90 ± SE, M region ([2]; 5 μM, 2 mM [KCl]0): 289.7 ± 2.848
QTend ([2]; 5 μM, 2 mM [KCl]0): 319 ± 4.58
TDR ([2]; 5 μM, 2 mM [KCl]0): 15 ± 7
Tpeak-Tend ([2]; 5 μM, 2 mM [KCl]0): 33 ± 1.33
APD50 ± SE, Epicardium ([2]; 5 μM, 4 mM [KCl]0): 176.5 ± 11.85
APD50 ± SE, M region ([2]; 5 μM, 4 mM [KCl]0): 207.5 ± 8.627
APD90 ± SE, Epicardium ([2]; 5 μM, 4 mM [KCl]0): 219 ± 12.12
APD90 ± SE, M region ([2]; 5 μM, 4 mM [KCl]0): 258.3 ± 11.08
QTend ([2]; 5 μM, 4 mM [KCl]0): 274.5 ± 13.73
TDR ([2]; 5 μM, 4 mM [KCl]0): 36 ± 2.449
Tpeak-Tend ([2]; 5 μM, 4 mM [KCl]0): 37.75 ± 4.09
APD50 ± SE, Epicardium ([2]; 10 μM, 2 mM [KCl]0): 190 ± 2
APD50 ± SE, M region ([2]; 10 μM, 2 mM [KCl]0): 208.3 ± 3.48
APD90 ± SE, Epicardium ([2]; 10 μM, 2 mM [KCl]0): 265.5 ± 16.5
APD90 ± SE, M region ([2]; 10 μM, 2 mM [KCl]0): 305.3 ± 4.978
QTend ([2]; 10 μM, 2 mM [KCl]0): 329 ± 2.33
TDR ([2]; 10 μM, 2 mM [KCl]0): 23.5 ± 1.5
Tpeak-Tend ([2]; 10 μM, 2 mM [KCl]0): 36 ± 4.09
APD50 ± SE, Epicardium ([2]; 10 μM, 4 mM [KCl]0): 170.5 ± 12.03
APD50 ± SE, M region ([2]; 10 μM, 4 mM [KCl]0): 199 ± 9.083
APD90 ± SE, Epicardium ([2]; 10 μM, 4 mM [KCl]0): 216.5 ± 13.41
APD90 ± SE, M region ([2]; 10 μM, 4 mM [KCl]0): 260.3 ± 12.66
QTend ([2]; 10 μM, 4 mM [KCl]0): 277.8 ± 14.99
TDR ([2]; 10 μM, 4 mM [KCl]0): 30.75 ± 10.46
Tpeak-Tend ([2]; 10 μM, 4 mM [KCl]0): 39.25 ± 5.54
APD50 ± SE, Epicardium ([2]; 50 μM, 2 mM [KCl]0): 179 ± 1
APD50 ± SE, M region ([2]; 50 μM, 2 mM [KCl]0): 214.3 ± 6.333
APD90 ± SE, Epicardium ([2]; 50 μM, 2 mM [KCl]0): 276.5 ± 18.5
APD90 ± SE, M region ([2]; 50 μM, 2 mM [KCl]0): 325.5 ± 5.5
QTend ([2]; 50 μM, 2 mM [KCl]0): 343 ± 2.84
TDR ([2]; 50 μM, 2 mM [KCl]0): 35.5 ± 3.5
Tpeak-Tend ([2]; 50 μM, 2 mM [KCl]0): 41 ± 6.35
APD50 ± SE, Epicardium ([2]; 50 μM, 4 mM [KCl]0): 159.5 ± 12.82
APD50 ± SE, M region ([2]; 50 μM, 4 mM [KCl]0): 187.8 ± 11.21
APD90 ± SE, Epicardium ([2]; 50 μM, 4 mM [KCl]0): 218 ± 15.91
APD90 ± SE, M region ([2]; 50 μM, 4 mM [KCl]0): 257.5 ± 15.47
QTend ([2]; 50 μM, 4 mM [KCl]0): 279.3 ± 17.21
TDR ([2]; 50 μM, 4 mM [KCl]0): 32.5 ± 6.278
Tpeak-Tend ([2]; 50 μM, 4 mM [KCl]0): 41.25 ± 8.37
APD50 ± SE, Epicardium ([2]; 100 μM, 2 mM [KCl]0): 167.5 ± 0.5
APD50 ± SE, M region ([2]; 100 μM, 2 mM [KCl]0): 187.7 ± 4.978
APD90 ± SE, Epicardium ([2]; 100 μM, 2 mM [KCl]0): 293.5 ± 21.5
APD90 ± SE, M region ([2]; 100 μM, 2 mM [KCl]0): 345 ± 14.36
QTend ([2]; 100 μM, 2 mM [KCl]0): 376 ± 4.48
TDR ([2]; 100 μM, 2 mM [KCl]0): 35 ± 11
Tpeak-Tend ([2]; 100 μM, 2 mM [KCl]0): 55 ± 1.00
APD50 ± SE, Epicardium ([2]; 100 μM, 4 mM [KCl]0): 152.5 ± 14.44
APD50 ± SE, M region ([2]; 100 μM, 4 mM [KCl]0): 169 ± 10.5
APD90 ± SE, Epicardium ([2]; 100 μM, 4 mM [KCl]0): 220.5 ± 18.26
APD90 ± SE, M region ([2]; 100 μM, 4 mM [KCl]0): 247.8 ± 15.32
QTend ([2]; 100 μM, 4 mM [KCl]0): 284.5 ± 14.39
TDR ([2]; 100 μM, 4 mM [KCl]0): 23.75 ± 2.689
Tpeak-Tend ([2]; 100 μM, 4 mM [KCl]0): 40.5 ± 4.94
Arrhythmias in the wedge preparation ([2]; any concentration of ranolazine): No arrhythmias were observed
Ranolazine-induced Torsade de Pointes, Spontaneous ([2]; 2 mM [K+]0): 0/3
Ranolazine-induced Torsade de Pointes, Stimulation-induced ([2]; 2 mM [K+]0): 0/3
Ranolazine-induced Torsade de Pointes, Spontaneous ([2]; 4 mM [K+]0): 0/4
Ranolazine-induced Torsade de Pointes, Stimulation-induced ([2]; 4 mM [K+]0): 0/4
Early or delayed afterdepolarizations ([2]; tissue or wedge preparations, any concentration of ranolazine): Neither early nor delayed afterdepolarizations were observed
